Measured values as given in patent US11708562B2, “Differentiation of human embryonic stem cells” (Janssen Biotech, Inc., priority 2006, dated 2023).

Tested on: H9P33, H9P44 and H9P48 cells
Experiment: Microarray analysis of definitive endoderm on MEFs vs MATRIGEL +/- Wnt-3A (Table VI)
Conditions: DE treatment in low serum, on MATRIGEL
Description: Controls for each group included cells plated on […]-coated dishes and cultured in MEF-conditioned medium or cells plated on MEFs and cultured in ES medium. All groups contained three biological replicates and each biological replicate was repeated on two separate gene chips.
Sample preparation, hybridization, and image analysis were performed according to the Affymetrix Human Genome U133 Plus 2.0 Array. Following normalization and a log transformation, data analysis was performed using OmniViz® software (MA) and […] (VizXLabs, WA). Significant differences in gene expression between the samples were evaluated using analysis of variance and an F-test with adjusted P-value (Benjamini and Hochberg correction) of ≤0.05. Only genes with a present call in at least one group were included in the analysis.

Substance: Activin A: a member of the TGFβ superfamily; growth factor (R&D Systems) used to differentiate human embryonic stem cells
- mean normalized intensity (log format), 6-phosphofructo-2-kinasefructose-2,6-biphosphatase 4: −0.2429
- mean normalized intensity (log format), Cluster Incl. AB028021: Homo sapiens HNF-3beta mRNA for hepatocyte nuclear factor-3 beta: −1.5339
- mean normalized intensity (log format), ESTs: −3.574
- mean normalized intensity (log format), ESTs, Highly similar to IHH_HUMAN INDIAN HEDGEHOG PROTEIN PRECURSOR (H. sapiens): −0.654
- mean normalized intensity (log format), ESTs, Moderately similar to JE0284 Mm-1 cell derived transplantability-associated protein 1b (H. sapiens): −2.377
- mean normalized intensity (log format), ESTs, Weakly similar to FCE2 MOUSE LOW AFFINITY IMMUNOGLOBULIN EPSILON FC RECEPTOR (M. musculus): 0.4942
- mean normalized intensity (log format), ESTs, Weakly similar to the 331st table hypothetical protein KIAA0555 (H. sapiens): −1.574
- mean normalized intensity (log format), G protein-coupled receptor: 1.507
- mean normalized intensity (log format), G protein-coupled receptor 49: 0.2655
- mean normalized intensity (log format), Homo sapiens HNF-3beta mRNA for hepatocyte nuclear factor-3 beta: −2.718
- mean normalized intensity (log format), Homo sapiens KIAA0878 protein (KIAA0878), mRNA: 2.0265
- mean normalized intensity (log format), Homo sapiens Kell blood group (KEL), mRNA: −2.205
- mean normalized intensity (log format), Homo sapiens MLL septin-like fusion (MSF), mRNA: −3.292
- mean normalized intensity (log format), Homo sapiens Mix-like homeobox protein 1 (MILD1) mRNA: −1.546
- mean normalized intensity (log format), Homo sapiens Rho GTPase activating protein 6 (ARHGAP6), transcript variant 2, mRNA: −1.104
- mean normalized intensity (log format), Homo sapiens TBX3-iso protein (TBX3-iso), mRNA: −2.346
- mean normalized intensity (log format), Homo sapiens angiopoietin 2 (ANGPT2), mRNA: −2.93
- mean normalized intensity (log format), Homo sapiens ankyrin-like with transmembrane domains 1 (ANKTM1), mRNA: −1.109
- mean normalized intensity (log format), Homo sapiens apolipoprotein A-I (APOA1), mRNA: −1.471
- mean normalized intensity (log format), Homo sapiens apolipoprotein A-II (APOA2), mRNA: −1.033
- mean normalized intensity (log format), Homo sapiens arylsulfatase E (chondrodysplasia punctata 1) (ARSE), mRNA: 0.283
- mean normalized intensity (log format), Homo sapiens atrophin-1 interacting protein 1; activin receptor interacting protein 1 (KIAA0705), mRNA: −4.308
- mean normalized intensity (log format), Homo sapiens beta-site APP cleaving enzyme (BACE) mRNA: −2.0354
- mean normalized intensity (log format), Homo sapiens cDNA FLJ11550 fis, clone HEMBA1002970: −1.222
- mean normalized intensity (log format), Homo sapiens cDNA FLJ12993 fis, clone NT2RP3000197: 0.1473
- mean normalized intensity (log format), Homo sapiens cDNA FLJ13221 fis, clone NT2RP4002075: 0.3557
- mean normalized intensity (log format), Homo sapiens cardiac ventricular troponin C mRNA: −0.5497
- mean normalized intensity (log format), Homo sapiens cartilage linking protein 1 (CRTL1), mRNA: −1.315
- mean normalized intensity (log format), Homo sapiens cell adhesion molecule with homology to L1CAM (close homologue of L1) (CHL1), mRNA: −0.5412
- mean normalized intensity (log format), Homo sapiens chromosome 19, cosmid R31181: −0.2589
- mean normalized intensity (log format), Homo sapiens clone 23736 mRNA sequence: −0.04718
- mean normalized intensity (log format), Homo sapiens cryptic mRNA, complete cds: 0.1049
- mean normalized intensity (log format), Homo sapiens cystatin S (CST4), mRNA: 0.9245
- mean normalized intensity (log format), Homo sapiens cystatin SA (CST2), mRNA: −0.1022
- mean normalized intensity (log format), Homo sapiens cystatin SN (CST1), mRNA: 0.07293
- mean normalized intensity (log format), Homo sapiens cytidine deaminase (CDA), mRNA: −3.891
- mean normalized intensity (log format), Homo sapiens dual specificity phosphatase 4 (DUSP4), mRNA: 0.9539
- mean normalized intensity (log format), Homo sapiens fibroblast growth factor 8 (androgen-induced) (FGF8), mRNA: −4.328
- mean normalized intensity (log format), Homo sapiens fibroblast growth factor 17 (FGF17), mRNA: −0.8946
- mean normalized intensity (log format), Homo sapiens frizzled-related protein (FRZB), mRNA: 0.565
- mean normalized intensity (log format), Homo sapiens gastrin-releasing peptide (GRP), mRNA: −2.741
- mean normalized intensity (log format), Homo sapiens glycophorin B (includes Ss blood group) (GYPB), mRNA: −0.9473
- mean normalized intensity (log format), Homo sapiens glycophorin E (GYPE), mRNA: −2.016
- mean normalized intensity (log format), Homo sapiens glycophorin Erik STA (GPErik) gene: −1.194
- mean normalized intensity (log format), Homo sapiens growth differentiation factor 3 (GDF3), mRNA: 1.673
- mean normalized intensity (log format), Homo sapiens haptoglobin (HP), mRNA: −1.101
- mean normalized intensity (log format), Homo sapiens haptoglobin-related protein (HPR), mRNA: −2.6068
- mean normalized intensity (log format), Homo sapiens homeobox protein goosecoid mRNA, complete cds: −4.42
- mean normalized intensity (log format), Homo sapiens hypothetical protein FLJ10718 (FLJ10718), mRNA: 2.605
- mean normalized intensity (log format), Homo sapiens hypothetical protein FLJ10970 (FLJ10970), mRNA: −0.432
- mean normalized intensity (log format), Homo sapiens hypothetical protein FLJ11316 (FLJ11316), mRNA: −0.9047
- mean normalized intensity (log format), Homo sapiens hypothetical protein FLJ22252 similar to SRY-box containing gene 17 (FLJ22252), mRNA: 1.368
- mean normalized intensity (log format), Homo sapiens hypothetical protein FLJ23403 (FLJ23403), mRNA: −1.485
- mean normalized intensity (log format), Homo sapiens lumican (LUM), mRNA: −4.057
- mean normalized intensity (log format), Homo sapiens mRNA for GATA-6, complete cds: 2.219
- mean normalized intensity (log format), Homo sapiens mRNA for KIAA1409 protein, partial cds: 0.3683
- mean normalized intensity (log format), Homo sapiens mRNA; cDNA DKFZp434D0818 (from clone DKFZp434D0818): −2.634
- mean normalized intensity (log format), Homo sapiens mRNA; cDNA DKFZp586J0624 (from clone DKFZp586J0624): −0.8352
- mean normalized intensity (log format), Homo sapiens matrix metalloproteinase 14 (membrane-inserted) (MMP14), mRNA: −0.7235
- mean normalized intensity (log format), Homo sapiens phorbolin-like protein MDS019 (MDS019), mRNA: −1.119
- mean normalized intensity (log format), Homo sapiens presenilin stabilization factor b (PSF) mRNA: −0.8617
- mean normalized intensity (log format), Homo sapiens reserved (KCNK12), mRNA: −0.4687
- mean normalized intensity (log format), Homo sapiens retinoid X receptor, gamma (RXRG), mRNA: −2.375
- mean normalized intensity (log format), Homo sapiens sema domain, immunoglobulin domain (Ig), short basic domain, secreted, (semaphorin) 3E (SEMA3E), mRNA: −0.786
- mean normalized intensity (log format), Homo sapiens sema domain, seven thrombospondin repeats, (semaphorin) 5A (SEMA5A), mRNA: −1.533
- mean normalized intensity (log format), Homo sapiens solute carrier family 16 (monocarboxylic acid transporters), member 3 (SLC16A3), mRNA: 0.7103
- mean normalized intensity (log format), Homo sapiens solute carrier family 21 (prostaglandin transporter), member 2 (SLC21A2), mRNA: 0.7114
- mean normalized intensity (log format), Homo sapiens type VI collagen alpha 2 chain precursor (COL6A2) mRNA: 1.7011
- mean normalized intensity (log format), Homo sapiens, alpha-1 (VI) collagen: −3.662
- mean normalized intensity (log format), Homo sapiens, clone MGC: 4655, mRNA: 2.3772
- mean normalized intensity (log format), Human (clone 8B1) Br-cadherin mRNA: −2.179
